Measurements taken from article PMC3411647 (PLoS ONE, 2012).

Key:
Assay type in all cases: cell-based
[1] = target: T1, H3R-EGFP (Homo sapiens, UniProt Q9Y5N1); assay: Recycling of internalized H3R-EGFP to the cell surface, confocal microscopy; conditions: 20 µM ZEL-H16 or 500 µM histamine for 30 min, cycloheximide 100 µg/ml
T1 construct: expressed in transfected cells
Description: Figure 6 Localization of internalized H3R-EGFP stably expressed in HEK-293 cells and recycling of internalized H3R to the cell surface. […] All pictures shown are representative of at least three independent experiments.
HEK-293 cells stably expressing H3R-EGFP were seeded in covered glass-bottom 6-well plates. […] After fixing the cells with 4% paraformaldehyde for 10 min, cells were mounted in mounting reagent (DTT/PBS/glycerol). Confocal images were taken on a Zeiss LSM 510 microscope with an attached Axiovert 200 microscope and LSM5 computer system. Images were collected using QED camera software and processed with Adobe Photoshop.

[2] = target: T2, H3R (Homo sapiens, UniProt Q9Y5N1); assay: ERK1/2 phosphorylation (Western blot) in HEK-293 cells stably expressing H3R
T2 construct: expressed in transfected cells
T2 sequence (Q9Y5N1 whole entry): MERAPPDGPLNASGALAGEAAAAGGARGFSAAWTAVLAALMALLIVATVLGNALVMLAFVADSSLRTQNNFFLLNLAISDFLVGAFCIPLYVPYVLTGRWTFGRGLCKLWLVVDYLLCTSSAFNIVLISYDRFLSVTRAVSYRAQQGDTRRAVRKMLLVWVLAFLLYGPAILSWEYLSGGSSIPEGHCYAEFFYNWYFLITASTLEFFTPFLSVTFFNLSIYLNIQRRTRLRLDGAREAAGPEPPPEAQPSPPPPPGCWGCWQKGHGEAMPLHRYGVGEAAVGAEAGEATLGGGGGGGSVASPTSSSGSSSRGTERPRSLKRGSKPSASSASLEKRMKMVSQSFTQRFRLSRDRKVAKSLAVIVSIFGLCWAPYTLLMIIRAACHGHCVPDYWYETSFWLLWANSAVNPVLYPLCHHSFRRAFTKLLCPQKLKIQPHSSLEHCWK
Description: Figure 7 Phosphorylation of ERK1/2 induced by ZEL-H16 in H3R-expressing HEK-293 cells. […] Signals were quantified by densitometric image analysis and p-ERK was normalized to a loading control (ERK). […] Concentration -dependent phosphorylation signals were quantified by densitometric analysis and p-ERK levels were normalized to total ERK levels. […] C, The phosphorylation of ERK1/2 induced by ZEL-H16 could be entirely abolished by co-incubation with H3R antagonist thioperamide (***p<0.001). Data represent the mean ±SE of three independent experiments.
HEK-293 cells stably expressing human H3R were grown in a 6-well plate and were serum starved 2 h in serum-free culture medium prior to stimulation. Cells were stimulated with the indicated H3R ligands at the designated concentrations. Incubations were stopped at the indicated times by removing the stimulation medium by aspiration. The cells were washed in ice-cold PBS and subsequently lysed in 100 µl of lysis buffer [20 mM HEPES (pH 7.5), 10 mM EDTA, 150 mM NaCl, 1% Triton X-100, and one tablet of complete protease inhibitor (Roche, Indianapolis, IN) per 50 mL] at 4°C on a rocker for 30 min. The lysates were centrifuged and separated by sodium dodecyl sulfate-polyacrylamide (12%) gel electrophoresis (SDS-PAGE) and blotted onto polyvinylidene difluoride membranes. Membranes were blocked for 1 h at room temperature in TBST (10 mmol/L Tris, 150 mmol/L NaCl, 0.1% Tween-20, pH 8.0) buffer containing 5% (v/w) skim milk. Membranes were probed overnight with primary antibodies against p-ERK1/2 (1∶1,000; Cell Signaling, Danvers, MA) in TBST containing 5% (v/w) BSA, and then probed with horseradish peroxidase-labeled secondary antibody (1∶5,000) for 1 h at room temperature in TBST containing 5% (v/w) milk powder. Immunoreactivity was detected by ECL assays. The blots were stripped and reprobed using antibodies against total ERK1/2 (1∶2,000) (Cell Signaling, Danvers, MA) as a control.

[3] = target: T3, hH2R (Homo sapiens, UniProt P25021); assay: CRE-driven luciferase activity in HEK-293 cells stably expressing hH2R
T3 construct: expressed in transfected cells
T3 sequence (P25021 whole entry): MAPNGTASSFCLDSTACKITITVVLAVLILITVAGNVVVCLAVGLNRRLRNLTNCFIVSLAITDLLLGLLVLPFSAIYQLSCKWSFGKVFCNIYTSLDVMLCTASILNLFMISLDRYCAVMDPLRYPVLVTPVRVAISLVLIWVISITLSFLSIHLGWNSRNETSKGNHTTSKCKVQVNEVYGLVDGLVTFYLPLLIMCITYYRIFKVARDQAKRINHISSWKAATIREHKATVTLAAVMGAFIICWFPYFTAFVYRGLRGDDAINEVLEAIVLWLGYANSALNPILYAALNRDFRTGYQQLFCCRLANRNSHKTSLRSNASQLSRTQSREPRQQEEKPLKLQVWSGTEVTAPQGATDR
Source text: (§1) Figure 3 The selectivity of ZEL-H16 for hH3R in intracellular Ca^2+ flux assay and CRE-luciferase transcription assay. A–C, Intracellular Ca^2+ flux or CRE-driven luciferase activity induced by ZEL-H16 in HEK-293 cells stably expressing hH1R (A), hH2R (B), or hH4R (C). […] The presented data points are the mean ±SE of triplicate values from a single experiment and are representative of three separate experiments. Statistical analysis between ZEL-H16 added or not added for each concentration point in the kinetic graph was done using a t-test (PRISM software). G, Relative expression of hH1R, hH2R, hH3R and hH4R on transfected HEK-293 cells by ELISA quantification for Flag-tagged cell-surface receptors (***p<0.001, compared to non-transfected HEK 293 cells).
Stable HEK-293 cells co-transfected with H3R and pCRE-Luc were seeded in a 48-well plate overnight and were grown to […] confluence. […] Luciferase activity was detected using a firefly luciferase kit (Promega, Madison, WI). When required, cells were treated overnight with or without PTX (100 ng/ml) in serum-free DMEM before the experiment.

[4] = target: T4, hH1R (Homo sapiens, UniProt P35367); assay: Intracellular Ca2+ flux assay in HEK-293 cells stably expressing hH1R
T4 construct: expressed in transfected cells
T4 sequence (P35367 whole entry): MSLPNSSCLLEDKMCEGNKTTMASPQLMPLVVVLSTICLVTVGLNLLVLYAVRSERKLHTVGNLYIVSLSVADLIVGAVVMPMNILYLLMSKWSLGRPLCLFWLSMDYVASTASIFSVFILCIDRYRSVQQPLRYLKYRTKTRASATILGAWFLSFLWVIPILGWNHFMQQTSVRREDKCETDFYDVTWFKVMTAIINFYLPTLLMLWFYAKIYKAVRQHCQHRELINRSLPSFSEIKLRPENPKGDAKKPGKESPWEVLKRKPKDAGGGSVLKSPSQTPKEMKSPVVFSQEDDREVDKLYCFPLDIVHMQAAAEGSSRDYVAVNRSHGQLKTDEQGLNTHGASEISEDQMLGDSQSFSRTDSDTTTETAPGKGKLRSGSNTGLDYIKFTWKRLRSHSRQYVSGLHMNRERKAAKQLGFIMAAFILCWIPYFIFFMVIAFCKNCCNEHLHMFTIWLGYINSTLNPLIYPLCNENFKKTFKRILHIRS
Source text: as §1
The stably H1R-expressing HEK-293 cells were harvested with Cell Stripper (Mediatech, Herndon, VA), washed twice with phosphate-buffered saline (PBS), and resuspended in Hanks’ balanced salt solution (140 mM NaCl, 5 mM KCl, 10 mM HEPES, pH 7.4, 1 mM CaCl2, 1 mM MgCl2, 1 mg/ml glucose) containing 0.025% bovine serum albumin. […] Calcium flux was measured using excitation at 340 and 380 nm in a Infinite 200 PRO multifunctional microplate reader (Tecan Austria GmbH, Grödig, AT ) and [Ca^2+]i was measured using the 340/380 excitation ratio (R 340/380).

[5] = target: T2, H3R; assay: CRE-driven luciferase reporter gene assay in HEK-293 cells stably expressing hH3R
Description: A, Concentration inhibition curve of luciferase activity induced by ZEL-H16 with forskolin stimulation. […] C. […] The presented data points are the mean ±SE of triplicate values from a single experiment and are representative of three to six separate experiments (*p<0.05; **p<0.01).
Luciferase activity was detected using a firefly luciferase kit (Promega, Madison, WI). When required, cells were treated overnight with or without PTX (100 ng/ml) in serum-free DMEM before the experiment.

T1 sequence (Q9Y5N1 whole entry): as the sequence (Q9Y5N1 whole entry) above

SMILES: c1ccc2c(c1)c(CCCN1CCCCC1)cn2CCCN1CCCCC1 [ZEL-H16]
- time for internalized H3R to recycle to the cell surface after agonist removal [1]: ≤ 3 h
- EC50 ([2]; 10 nM to 100 µM, Western-blot densitometry): 1100 ± 100 nM
- time of maximal ERK1/2 activation after stimulation ([2]; 1 µM): 2 min
- Emax at 1 µM ([2]; HEK293, read-out: maximal activation of ERK1/2 relative to maximal activation induced by histamine, 1 µM): ~50%
- antagonist activity: influence on luciferase activity curves induced by histamine ([3]; ZEL-H16 added to histamine): did not significantly change the luciferase activity curves
- agonist activity: luciferase activity after stimulation ([3]; ZEL-H16 alone): no significant responses
- antagonist activity: influence on Ca2+ release stimulated by histamine ([4]; ZEL-H16 added to histamine): neither modulate the intracellular Ca^2+ release stimulated by histamine
- agonist activity: intracellular Ca2+ release ([4]; ZEL-H16 alone, compared to histamine): did not induce similar intracellular Ca^2+ release
- Emax ([5]; HEK293): 61 ± 3.2%
- Schild slope ([5]; agonist curves in the presence of 30 nM, 300 nM or 1 µM thioperamide): 1.140±0.168
- EC50 ([5]; inhibition of forskolin-induced luciferase activity, Mean ± SEM, n = 6): 4.36 ± 1.39 nM
